From ChEMBL document CHEMBL1150538, “Anti HIV-1 activity of a hydrophilic cyclosporin derivative with improved binding affinity to cyclophilin A” (Bioorg Med Chem Lett, 1996)
≈ marks a conversion by molar mass, not a printed value.

Key:
Jurkat = assay: In vitro immunosuppressive activity relative to cyclosporin A using interleukin-2 reporter gene assay was determined in a Jurkat cell line; format: functional, Homo sapiens
Mus musculus = species: Mus musculus; assay: In vitro immunosuppressive activity relative to cyclosporin A was determined by using mouse mixed lymphocyte reaction; format: functional
AIK-T4 = assay: In vitro inhibition of the cytopathic effect induced by HIV-1(IIIB) using the human T-cell leukemia virus transformed T4 cell line.; format: functional, cell-based

Row | Relative IC50 (Jurkat) | Relative IC50 (Mus musculus) | IC50 (AIK-T4) | Compound
1 | >770 | >3333 | – | C/C=C/C[C@@H](C)[C@@H](O)[C@H]1C(=O)N[C@@H](CC)C(=O)N(C)[C@H](CO)C(=O)N(C)[C@@H](CC(C)(C)O)C(=O)N[C@@H](C(C)C)C(=O)N(C)[C@@H](CC(C)C)C(=O)N[C@@H](C)C(=O)N[C@H](C)C(=O)N(C)[C@@H](CC(C)C)C(=O)N(C)[C@@H](CC(C)C)C(=O)N(C)[C@@H](C(C)C)C(=O)N1C [listing 1 of 2 here]
2 | – | – | 0.12 µg/mL (≈ 0.0961 µM) | C/C=C/C[C@@H](C)[C@@H](O)[C@H]1C(=O)N[C@@H](CC)C(=O)N(C)[C@H](CO)C(=O)N(C)[C@@H](CC(C)(C)O)C(=O)N[C@@H](C(C)C)C(=O)N(C)[C@@H](CC(C)C)C(=O)N[C@@H](C)C(=O)N[C@H](C)C(=O)N(C)[C@@H](CC(C)C)C(=O)N(C)[C@@H](CC(C)C)C(=O)N(C)[C@@H](C(C)C)C(=O)N1C [listing 2 of 2 here]
